This passage reports IC50 results from patent US20230234942A1, “COMPOUNDS FOR TREATING HUNTINGTON'S DISEASE” (PTC Therapeutics, Inc., priority 2020, published 2023).

For this assay, the system named is Endogenous Huntingtin Protein. Kind of assay: Endogenous Huntingtin Protein Assay (ELISA-based MSD electrochemiluminescence). The class given is cell-based. To be noted: Table 2; MSD plates coated with MW1 (expanded polyglutamine) or MAB2166 capture antibody; "inactive" = result above the detection limit of the assay. A digest of the protocol: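 MSD electrochemiluminescence sandwich ELISA: capture with MW1 (expanded polyQ) or MAB2166 at 1 µg/mL, samples incubated overnight at 4 °C. Detection by rabbit mAb #56565 then SULFO-TAG anti-rabbit antibody, each 0.25 µg/mL for 1 h at room temperature, read in buffer T on SI 6000 imager.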
On the technique in general: ELISA stands for enzyme-linked immunosorbent assay.
In turn, `[2H]C([2H])([2H])n1cc(-c2ccc(-c3cnc(N4CCNC(CC)C4)nn3)c(O)c2)cn1` (centres unmarked) [Cpd 39, 2-[3-(3-ethylpiperazin-1-yl)-1,2,4-triazin-6-yl]-5-[1-(^2H3)methyl-1H-pyrazol-4-yl]phenol] came in with a 50% inhibitory concentration (IC50) of 0.0637 µM.

`Oc1cc(-c2cn[nH]c2)ccc1-c1cnc(N2CCNC(C3CCC3)C2)nn1` (centres unmarked) [Cpd 30, 2-[3-(3-cyclobutylpiperazin-1-yl)-1,2,4-triazin-6-yl]-5-(1H-pyrazol-4-yl)phenol] displayed an IC50 of 0.0333 µM.

Take `Oc1cc(-n2nccn2)cnc1-c1cnc(N2CCN[C@@H](C3CC3)C2)nn1` [Cpd 182, 2-{3-[(3S)-3-cyclopropylpiperazin-1-yl]-1,2,4-triazin-6-yl}-5-(2H-1,2,3-triazol-2-yl)pyridin-3-ol]: the IC50 is 0.173 µM.

Molecule `Cn1cc2cc(-c3ccc(-c4cnc(N5CCN6CCC[C@@H]6C5)nn4)c(O)c3)cc(F)c2n1` [Cpd 105, 5-(7-fluoro-2-methyl-2H-indazol-5-yl)-2-{3-[(8aR)-hexahydropyrrolo[1,2-a]pyrazin-2(1H)-yl]-1,2,4-triazin-6-yl}phenol] yielded an IC50 of 0.0153 µM.

As to “2-{3-[(3S,5R)-3-tert-butyl-5-methylpiperazin-1-yl]-1,2,4-triazin-6-yl}-5-(1,2,4-thiadiazol-3-yl)phenol [Cpd 254]”, the 50% inhibitory concentration (IC50) is 0.556 µM.

Molecule `Cn1cc2cc(-c3ccc(-c4cnc(N5CCN6CCC[C@H]6C5)nn4)c(O)c3)cc(F)c2n1` [Cpd 99, 5-(7-fluoro-2-methyl-2H-indazol-5-yl)-2-{3-[(8aS)-hexahydropyrrolo[1,2-a]pyrazin-2(1H)-yl]-1,2,4-triazin-6-yl]phenol] displayed a 50% inhibitory concentration (IC50) of 0.0105 µM.

`Oc1cc(-c2cn[nH]c2)ccc1-c1cnc(N2CCN[C@@H](C3CC3)C2)nn1` [Cpd 137, 2-{3-[(3S)-3-cyclopropylpiperazin-1-yl]-1,2,4-triazin-6-yl}-5-(1H-pyrazol-4-yl)phenol] returned an IC50 of 0.0075 µM.

The molecule `CC(C)[C@H]1CN(c2ncc(-c3ccc(-c4cnccn4)cc3O)nn2)CCN1` [Cpd 144, 2-{3-[(3S)-3-(propan-2-yl)piperazin-1-yl]-1,2,4-triazin-6-yl}-5-(pyrazin-2-yl)phenol] yielded an IC50 of 0.466 µM.

Molecule `Cn1nc2cc(-c3ccc(-c4cnc(N5CCN[C@@H](C6(C)CC6)C5)nn4)c(O)c3)cnc2n1` [Cpd 241, 2-{3-[(3S)-3-(1-methylcyclopropyl)piperazin-1-yl]-1,2,4-triazin-6-yl}-5-(2-methyl-2H-[1,2,3]triazolo[4,5-b]pyridin-6-yl)phenol] returned a 50% inhibitory concentration (IC50) of 0.0057 µM.

`CC(C)C1CN(c2ncc(-c3ccc(-c4cn[nH]c4)cc3O)nn2)CCN1` (centres unmarked) [Cpd 22, 2-{3-[3-(propan-2-yl)piperazin-1-yl]-1,2,4-triazin-6-yl}-5-(1H-pyrazol-4-yl)phenol] registered an IC50 of 0.0223 µM.

`COc1cc(-c2ccc(-c3cnc(N4C[C@@H](C)N[C@@H](C5CC5)C4)nn3)c(O)c2)ccn1` [Cpd 256, 2-{3-[(3S,5R)-3-cyclopropyl-5-methylpiperazin-1-yl]-1,2,4-triazin-6-yl}-5-(2-methoxypyridin-4-yl)phenol] displayed an IC50 of 0.0124 µM.

With `COc1cc(-c2cnc(-c3cnc(N4CCN(C)CC4)nn3)c(O)c2)cc2cn(C)nc12` [Cpd 121, 5-(7-methoxy-2-methyl-2H-indazol-5-yl)-2-[3-(4-methylpiperazin-1-yl)-1,2,4-triazin-6-yl]pyridin-3-ol], the half-maximal inhibitory concentration (IC50) was 0.0161 µM.

`Cc1nc2ncc(-c3ccc(-c4cnc(N5C[C@@H](C)N[C@@H](C)C5)nn4)c(O)c3)cn2n1` [Cpd 112, 2-{3-[(3R,5S)-3,5-dimethylpiperazin-1-yl]-1,2,4-triazin-6-yl}-5-(2-methyl[1,2,4]triazolo[1,5-a]pyrimidin-6-yl)phenol] came in with an IC50 of 0.034 µM.

Regarding `Cc1cc2nc(-c3ccc(-c4cnc(N5C[C@@H](C)N[C@@H](C)C5)nn4)c(O)c3)sc2c(C)n1` [Cpd 116, 2-{3-[(3R,5S)-3,5-dimethylpiperazin-1-yl]-1,2,4-triazin-6-yl}-5-(4,6-dimethyl[1,3]thiazolo[5,4-c]pyridin-2-yl)phenol], half-maximal inhibition (IC50) was put at 0.678 µM.

`CC(C)[C@H]1CN(c2ncc(-c3ccc(-c4nc(C(F)F)cs4)cc3O)nn2)CCN1` [Cpd 186, 5-[4-(difluoromethyl)-1,3-thiazol-2-yl]-2-{3-[(3S)-3-(propan-2-yl)piperazin-1-yl]-1,2,4-triazin-6-yl}phenol] had an IC50 of 0.0777 µM.

In turn, `Oc1cc(-c2ncns2)ccc1-c1cnc(N2CCN[C@@H](C3CC3)C2)nn1` [Cpd 170, 2-{3-[(3S)-3-cyclopropylpiperazin-1-yl]-1,2,4-triazin-6-yl}-5-(1,2,4-thiadiazol-5-yl)phenol] returned an IC50 of 0.0215 µM.

`CC[C@H]1CN(c2ncc(-c3ccc(-n4nccn4)cc3O)nn2)CCN1` [Cpd 132, 2-{3-[(3S)-3-ethylpiperazin-1-yl]-1,2,4-triazin-6-yl}-5-(2H-1,2,3-triazol-2-yl)phenol]: the IC50 was determined as 0.0389 µM.

Turning to `Oc1cc(-c2cn[nH]c2)ccc1-c1cnc(N2CCN3CCCCC3C2)nn1` (centres unmarked) [Cpd 203, 2-[3-(octahydro-2H-pyrido[1,2-a]pyrazin-2-yl)-1,2,4-triazin-6-yl]-5-(1H-pyrazol-4-yl)phenol], it took 0.0425 µM to reach half-maximal inhibition (IC50).

On to `Oc1cc(-c2cn[nH]c2)ccc1-c1cnc(N2CCN3C[C@H](O)C[C@H]3C2)nn1` [Cpd 59, (7R,8aS)-2-{6-[2-hydroxy-4-(1H-pyrazol-4-yl)phenyl]-1,2,4-triazin-3-yl}octahydropyrrolo[1,2-a]pyrazin-7-ol], for which the 50% inhibitory concentration (IC50) was 0.876 µM.

`Oc1cc(-c2c[nH]nc2F)ccc1-c1cnc(N2CCNC3(CC3)C2)nn1` [Cpd 57, 2-[3-(4,7-diazaspiro[2.5]octan-7-yl)-1,2,4-triazin-6-yl]-5-(3-fluoro-1H-pyrazol-4-yl)phenol]: the IC50 amounted to 0.668 µM.

`CC1([C@@H]2CN(c3ncc(-c4ccc(-c5cnn6c5CCC6)cc4O)nn3)CCN2)CC1` [Cpd 281, 5-(5,6-dihydro-4H-pyrrolo[1,2-b]pyrazol-3-yl)-2-{3-[(3R)-3-(1-methylcyclopropyl)piperazin-1-yl]-1,2,4-triazin-6-yl}phenol] gave an IC50 of 0.198 µM.

`Oc1cc(-c2cn[nH]c2)ccc1-c1cnc(N2CCNC(C3CC3(F)F)C2)nn1` (centres unmarked) [Cpd 36, 2-{3-[3-(2,2-dilluorocyclopropyl)piperazin-1-yl]-1,2,4-triazin-6-yl}-5-(1H-pyrazol-4-yl)phenol]: 0.0477 µM corresponded to half-maximal inhibition (IC50).

`C=CC1CN(c2ncc(-c3ccc(-c4cn[nH]c4)cc3O)nn2)CCN1` (centres unmarked) [Cpd 38, 2-[3-(3-ethenylpiperazin-1-yl)-1,2,4-triazin-6-yl]-5-(1H-pyrazol-4-yl)phenol] came in with an IC50 of 0.0562 µM.

`COc1cc(-c2ccc(-c3cnc(N4CCN[C@@H](C(C)C)C4)nn3)c(O)c2)nc(OC)n1` [Cpd 207, 5-(2,6-dimethoxypyrimidin-4-yl)-2-{3-[(3S)-3-(propan-2-yl)piperazin-1-yl]-1,2,4-triazin-6-yl}phenol]: 0.01 µM corresponded to half-maximal inhibition (IC50).

Consider `CC(C)[C@H]1CN(c2ncc(-c3ccc(-c4ccc5nccn5n4)cc3O)nn2)CCN1` [Cpd 102, 5-(imidazo[1,2-b]pyridazin-6-yl)-2-{3-[(3S)-3-(propan-2-yl)piperazin-1-yl]-1,2,4-triazin-6-yl}phenol], for which the IC50 worked out at 0.0134 µM.

With `Cc1ccc2c(ccn2-c2ccc(-c3cnc(N4CCN[C@@H](C(C)C)C4)nn3)c(O)c2)n1` [Cpd 159, 5-(5-methyl-1H-pyrrolo[3,2-b]pyridin-1-yl)-2-{3-[(3S)-3-(propan-2-yl)piperazin-1-yl]-1,2,4-triazin-6-yl}phenol], the concentration for half-maximal inhibition (IC50) was 0.0622 µM.

Take `CC(C)[C@H]1CN(c2ncc(-c3cc(F)c(-c4cn[nH]c4)cc3O)nn2)CCN1` [Cpd 158, 4-fluoro-2-{3-[(3S)-3-(propan-2-yl)piperazin-1-yl]-1,2,4-triazin-6-yl}-5-(1H-pyrazol-4-yl)phenol]: the IC50 amounted to 0.0056 µM.

`CC(C)[C@H]1CN(c2ncc(-c3ccc(-c4ccc5nncn5c4)cc3O)nn2)CCN1` [Cpd 115, 2-{3-[(3S)-3-(propan-2-yl)piperazin-1-yl]-1,2,4-triazin-6-yl}-5-([1,2,4]triazolo[4,3-a]pyridin-6-yl)phenol]: inhibition was half-maximal at 0.179 µM (IC50).

As for `OC[C@@H]1CN(c2ncc(-c3ccc(-n4nccn4)cc3O)nn2)CCN1` [Cpd 45, 2-{3-[(3S)-3-(hydroxymethyl)piperazin-1-yl]-1,2,4-triazin-6-yl}-5-(2H-1,2,3-triazol-2-yl)phenol], the midpoint of inhibition, the IC50, lay at 0.142 µM.

Consider `COC1(C2CN(c3ncc(-c4ccc(-c5cn[nH]c5)cc4O)nn3)CCN2)CC1` (centres unmarked) [Cpd 29, 2-{3-[3-(1-methoxycyclopropyl)piperazin-1-yl]-1,2,4-triazin-6-yl}-5-(1H-pyrazol-4-yl)phenol], for which the IC50 was determined as 0.0285 µM.

Regarding `Oc1cc(-c2cnn3c2CCC3)ccc1-c1cnc(N2CCN[C@@H](C3CC3)C2)nn1` [Cpd 276, 2-{3-[(3S)-3-cyclopropylpiperazin-1-yl]-1,2,4-triazin-6-yl}-5-(5,6-dihydro-4H-pyrrolo[1,2-b]pyrazol-3-yl)phenol], the IC50 worked out at 0.0037 µM.

Regarding `CC(C)(C)[C@H]1CN(c2ncc(-c3ccc(-c4c[nH]nc4F)cc3O)nn2)CCN1` [Cpd 125, 2-{3-[(3S)-3-tert-butylpiperazin-1-yl]-1,2,4-triazin-6-yl}-5-(3-fluoro-1H-pyrazol-4-yl)phenol], 0.0073 µM corresponded to half-maximal inhibition (IC50).

`COc1cc(-c2ccc(-c3cnc(N4C[C@@H](C)N[C@@H](C5CC5)C4)nn3)c(O)c2)nc(OC)n1` [Cpd 219, 2-{3-[(3S,5R)-3-cyclopropyl-5-methylpiperazin-1-yl]-1,2,4-triazin-6-yl}-5-(2,6-dimethoxypyrimidin-4-yl)phenol] displayed an IC50 of 0.0137 µM.

`CC(C)[C@@H]1CN(c2ncc(-c3ccc(-c4cn[nH]c4)cc3O)nn2)CCN1` [Cpd 40, 2-{3-[(3R)-3-(propan-2-yl)piperazin-1-yl]-1,2,4-triazin-6-yl}-5-(1H-pyrazol-4-yl)phenol] displayed a half-inhibitory concentration (IC50) of 0.0682 µM.

`Oc1cc(-c2cn3ncnc3cn2)ccc1-c1cnc(N2CCN[C@@H](C3CC3)C2)nn1` [Cpd 130, 2-{3-[(3S)-3-cyclopropylpiperazin-1-yl]-1,2,4-triazin-6-yl}-5-([1,2,4]triazolo[1,5-a]pyrazin-6-yl)phenol] gave an IC50 of 0.012 µM.

By IC50 is commonly meant the concentration at which inhibition is half-maximal. Read a low IC50 as greater potency in that assay.
